# Values of other authors in patent US20070213388A1, “Acetylcholinesterase Inhibitors and N-Methyl-D-Aspartate Antagonists Useful in the Treatment of Cognitive Disorders” (priority 2004, published 2007).
# What was measured:
# [1] = biological target: neuronal receptors (NMDA receptor); details: at -67 mV
# [2] = tested on: cytochrome P450 (CYP 450) isoenzymes; details: in vitro
# [3] = not given; remark: listed apart in the source
# [4] = tested on: cholinesterase; details: see WO 00/248150
# [5] = rats, i.v. dosing
# [6] = biological target: T1, AChE (Rattus norvegicus, UniProt P37136); details: rats, after phenserine administration
# T1 construct: from tissue; host or cells: rat
# T1 sequence (P37136 32-614): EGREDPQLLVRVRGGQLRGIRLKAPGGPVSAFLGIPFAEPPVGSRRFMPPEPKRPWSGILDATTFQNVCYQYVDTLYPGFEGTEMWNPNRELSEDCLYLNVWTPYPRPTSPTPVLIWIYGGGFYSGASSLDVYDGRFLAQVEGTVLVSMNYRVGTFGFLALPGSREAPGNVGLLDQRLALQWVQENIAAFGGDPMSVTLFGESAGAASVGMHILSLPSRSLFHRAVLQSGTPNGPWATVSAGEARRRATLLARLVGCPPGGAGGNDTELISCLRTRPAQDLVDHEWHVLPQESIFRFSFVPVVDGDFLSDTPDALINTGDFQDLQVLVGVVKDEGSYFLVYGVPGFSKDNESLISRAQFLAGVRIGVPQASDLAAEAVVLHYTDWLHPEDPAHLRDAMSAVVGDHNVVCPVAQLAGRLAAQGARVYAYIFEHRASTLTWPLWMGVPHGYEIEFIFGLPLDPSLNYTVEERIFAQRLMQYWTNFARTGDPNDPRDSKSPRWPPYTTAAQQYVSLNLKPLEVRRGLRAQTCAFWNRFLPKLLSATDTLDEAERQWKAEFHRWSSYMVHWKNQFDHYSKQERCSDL
# [7] = tested on: brain ACh levels; details: conscious, freely-moving rats, striatal microdialysis
structure (smiles),measurement,setting,value
"CC12CC3CC(C)(C1)CC(N)(C3)C2.Cl [memantine, 1-amino-3,5-dimethyladamantane hydrochloride]",IC50,[1],1400 nM
same,CSF/serum ratio,crosses the blood brain barrier,0.52
same,terminal elimination half-life,"humans, oral dose",60 to 80 h
same,inhibition of cytochrome P450 (CYP 450) isoenzymes,[2],does not inhibit
same,water solubility,[3],water soluble
"CN1CC[C@@]2(C)c3cc(OC(=O)Nc4ccccc4)ccc3N(C)C12 (single isomer, unassigned; (+)) [(+)-phenserine]",cholinesterase activity,[4],lacks cholinesterase activity
"CN1CC[C@]2(C)c3cc(OC(=O)Nc4ccccc4)ccc3N(C)C12 (single isomer, unassigned; (-)) [phenserine, (−)-N-phenylcarbamoyl eseroline]",brain drug levels relative to plasma,[5],10 fold
same,time to peak drug levels,[5],≤ 5 min
same,half-life of brain drug levels,[5]; brain,8.5 min
same,half-life of plasma drug levels,[5]; plasma,12.6 min
same,inhibition of AChE,[6],> 70%
same,rise in brain ACh levels,[7],greater than 3 fold
